This note sets out measurements from paper PMC1479381, “Uncharged isocoumarin-based inhibitors of urokinase-type plasminogen activator” (BMC Chemical Biology, 2006).

Where a name gives a salt, the structure may show the parent alone.

For one data set, the target named is T1, human uPA (Homo sapiens, UniProt P00749).
T1 construct: purchased Sigma/Aldrich, St. Louis, MO
The data set is described as follows: Kinetic inhibition of human urokinase, Spectrozyme UK substrate, initial rates at 405 nm. The format is biochemical. The note with it: for Ki: 0.1 M Tris, pH 8.8, 25°C, Spectrozyme UK 10 μM to 150 μM, read-out: Ki, dissociation constant for inhibition of human uPA; for fold improvement in Ki over compound 4d: compared with unsubstituted 4d. As for the experimental part: Human urokinase (Sigma/Aldrich, St. Louis, MO) and Spectrozyme UK (American Diagnostica, Stamford, CT) were used for the kinetic studies. Enzyme activity was routinely measured in 1 ml volumes of 0.1 M Tris, pH 8.8, Spectrozyme UK (10 μM to 150 μM) and 0.64 μg (3,770 units/mg protein) human urokinase. Reactions were monitored at 405 nm, 25°C, with a Perkin/Elmer Lambda S2 UV/vis spectrophotometer. Michaelis constants and Ki values were determined from initial rate data, measured at 8 to 10 substrate concentrations, by non-linear regression analysis with SigmaPlot's Enzyme Kinetics Module™ (Chicago, IL, USA).

The term Ki denotes a measure of affinity in units of concentration, obtained from inhibition or displacement. The term melting point denotes the temperature of the solid-liquid transition.

`O=C(Nc1ccc2c(Cl)c(OCCCBr)oc(=O)c2c1)c1ccccc1` [Compound 8b, N-[3-(3-Bromopropoxy)-4-chloro-1-oxo-1H-isochromen-7-yl]benzamide] came in with a melting point of 193 to 194 °C. For the same molecule, at human uPA, the Ki stood at 0.034 ± 0.002 µM and the “fold improvement in Ki over compound 4d” value amounted to 300 fold.

For `N=C(N)SCCOc1oc(=O)c2cc(N)ccc2c1Cl` [Compound 7a, 2-[2-(7-amino-4-chloro-1-oxo-1H-isochromen-3-yloxy)ethyl]isothiourea hydrobromide], at human uPA, the Ki stood at 0.02 ± 0.003 µM.

As to `Br.N=C(N)SCCOc1oc(=O)c2cc(NC(=O)c3ccccc3)ccc2c1Cl` [Compound 9a, 2-[2-(7-Benzamido-4-chloro-1-oxo-1H-isochromen-3-yloxy)ethyl]isothiourea hydrobromide], the melting point is 173 to 175 °C. Also, the Ki on human uPA is 0.084 ± 0.007 µM.

Molecule `Nc1ccc2c(Cl)c(OCCBr)oc(=O)c2c1` [Compound 6a, 7-Amino-3-(2-bromoethoxy)-4-chloro-1H-isochromen-1-one] came in with a melting point of 134 to 136 °C. Also, the inhibition constant (Ki) at human uPA came to 12 ± 1 µM.

Consider `O=c1oc(OCCCBr)c(Cl)c2ccccc12` [Compound 4d, 3-(3-Bromopropoxy)-4-chloro-1H-isochromen-1-one], for which the melting point lay within 95 to 97 °C. In addition, on human uPA, the Ki turned out to be 9 ± 1 µM. The “type of inhibition of uPA” value on human uPA (kinetic studies) is “simple competitive inhibition”.

`O=C(Nc1ccc2c(Cl)c(OCCBr)oc(=O)c2c1)c1ccccc1` [Compound 8a, N-[3-(2-Bromoethoxy)-4-chloro-1-oxo-1H-isochromen-7-yl]benzamide] yielded a melting point of 214 to 216 °C. In addition, the Ki at human uPA is 1.4 ± 0.2 µM.

Take `Br.N=C(N)SCCOc1oc(=O)c2ccccc2c1Cl` [Compound 5c, 2-[2-(4-Chloro-1-oxo-1H-isochromen-3-yloxy)ethyl]isothiourea hydrobromide]: the melting point lay within 168 to 170 °C. Further, the Ki on human uPA amounted to 0.033 ± 0.004 µM.

As to `Nc1ccc2c(Cl)c(OCCCBr)oc(=O)c2c1` [Compound 6b, 7-Amino-3-(3-bromopropoxy)-4-chloro-1H-isochromen-1-one], the melting point was 106 to 107 °C. Moreover, the Ki at human uPA is 9.5 ± 1 µM.

Turning to `O=c1oc(OCCBr)c(Cl)c2ccccc12` [Compound 4c, 3-(2-Bromoethoxy)-4-chloro-1H-isochromen-1-one], the melting point lay in the range of 81 to 82 °C. In addition, on human uPA, the Ki came out at 14 ± 1 µM.

On to `Br.N=C(N)SCCCOc1oc(=O)c2cc(N)ccc2c1Cl` [Compound 7b, 2-[3-(7-Amino-4-chloro-1-oxo-1H-isochromen-3-yloxy)propyl]isothiourea hydrobromide], for which the melting point is 173 °C. Moreover, the Ki at human uPA worked out at 0.038 ± 0.005 µM.

In turn, `O=c1oc(OCCCCBr)c(Cl)c2ccccc12` [Compound 4e, 3-(4-Bromobutoxy)-4-chloro-1H-isochromen-1-one] registered a melting point of 75 to 77 °C. Besides, the inhibition constant Ki on human uPA turned out to be 18 ± 2 µM.

Consider `O=c1oc(OCCBr)cc2ccc([N+](=O)[O-])cc12` [Compound 10a, 3-(2-Bromoethoxy)-7-nitro-1H-isochromen-1-one], for which the melting point lay within 95 to 97 °C. For the same molecule, at human uPA, the Ki was determined as 4.2 ± 0.4 µM.

As to `Nc1ccc2cc(OCCBr)oc(=O)c2c1` [Compound 11, 7-Amino-3-(2-bromoethoxy)-1H-isochromen-1-one], the melting point is above 280 °C. In addition, on human uPA, the Ki is 65 ± 9 µM.

Regarding `O=c1oc(OCCCBr)c(Cl)c2ccc([N+](=O)[O-])cc12` [Compound 4b, 3-(3-Bromopropoxy)-4-chloro-7-nitro-1H-isochromen-1-one], the melting point was 131 to 134 °C. In addition, at human uPA, the Ki is 2.4 ± 0.2 µM and the “fold improvement in Ki over compound 4d” value was determined as 4 fold.

On to `O=C(c1c(OCCCBr)oc(=O)c2ccccc12)C(F)(F)F` [Compound 10c, 3-(3-Bromopropoxy)-4-trifluoroacetyl-1H-isochromen-1-one], for which the melting point is 116 to 117 °C. At human uPA, the Ki was determined as 14 ± 2 µM.

`O=c1oc(OCCBr)c(Cl)c2ccc([N+](=O)[O-])cc12` [Compound 4a, 3-(2-Bromoethoxy)-4-chloro-7-nitro-1H-isochromen-1-one] showed a melting point of 126 to 128 °C. Further, at human uPA, the Ki was 1.8 ± 0.2 µM.

As for `N=C(N)SCCCCOc1oc(=O)c2ccccc2c1Cl` [Compound 5e, 2-[4-(4-Chloro-1-oxo-1H-isochromen-3-yloxy)butyl]isothiourea hydrobromide], the inhibition constant Ki at human uPA is 0.14 ± 0.02 µM.

Molecule `O=c1oc(OCCCBr)cc2ccc([N+](=O)[O-])cc12` [Compound 10b, 3-(3-Bromopropoxy)-7-nitro-1H-isochromen-1-one] returned a melting point of 117 to 118 °C. Moreover, the Ki at human uPA was determined as 4.3 ± 0.3 µM.

Turning to `Br.N=C(N)SCCCOc1oc(=O)c2ccccc2c1Cl` [Compound 5d, 2-[3-(4-Chloro-1-oxo-1H-isochromen-3-yloxy)propyl]isothiourea hydrobromide], the melting point was in the range of 159 to 163 °C. At human uPA, the Ki turned out to be 0.055 ± 0.003 µM.

`Br.N=C(N)SCCCOc1oc(=O)c2cc(NC(=O)c3ccccc3)ccc2c1Cl` [Compound 9b, 2-[3-(7-Benzamido-4-chloro-1-oxo-1H-isochromen-3-yloxy]propyl)isothiourea hydrobromide] returned a melting point of 203 to 204 °C. Also, at human uPA, the Ki stood at 0.01 ± 0.008 µM.
